Experimental data published in ChEMBL document CHEMBL3259765, “ProTides of N-(3-(5-(2'-deoxyuridine))prop-2-ynyl)octanamide as potential anti-tubercular and anti-viral agents” (Bioorg Med Chem, 2014).
≈ marks a conversion by molar mass, not a printed value. Calls of active or inactive are those of the source. The calls are words filed in the database; no cut-off is given here.

Key:
[1] = test system: Escherichia coli; assay: Antibacterial activity against Escherichia coli DH5[alpha] ATCC 53868 after overnight incubation by HT-SPOTi assay; type: functional, organism-based
[2] = test system: Mycobacterium tuberculosis; assay: Antibacterial activity against Mycobacterium tuberculosis H37Rv ATCC 27294 up to 2 weeks by HT-SPOTi assay; type: functional; settings: H37Rv ATCC 27294, 336 h
[3] = test system: Vaccinia virus; assay: Antiviral activity against Vaccinia virus infected in HEL cells assessed as reduction in virus-induced cytopathicity after 3 days; type: functional, organism-based; settings: Orthopoxvirus vaccinia
[4] = test system: Human betaherpesvirus 5; assay: Antiviral activity against Human cytomegalovirus AD169 infected in HEL cells assessed as reduction in virus-induced cytopathicity after 7 days; type: functional, organism-based
[5] = test system: Human betaherpesvirus 5; assay: Antiviral activity against Human cytomegalovirus Davis infected in HEL cells assessed as reduction in virus-induced cytopathicity after 7 days; type: functional, organism-based
[6] = test system: Human alphaherpesvirus 3; assay: Antiviral activity against thymidine kinase-positive Varicella zoster virus Oka infected in HEL cells assessed as reduction in viral plaque formation after 5 days; type: functional, organism-based; settings: Human alphaherpesvirus 3, strain Oka vaccine, 120 h
[7] = test system: Human alphaherpesvirus 3; assay: Antiviral activity against thymidine kinase-deficient Varicella zoster virus 07-1 infected in HEL cells assessed as reduction in viral plaque formation after 5 days; type: functional, organism-based; settings: Human alphaherpesvirus 3, 07-1, HEL, 120 h
[8] = Cytotoxicity against HEL cells assessed as morphological changes after 3 to 5 days […]; type: cell-based; settings: human
[9] = Cytotoxicity against HEL cells assessed as reduction in cell growth after 3 to 5 days by Coulter counting analysis; type: cell-based; settings: human
[10] = test system: Human alphaherpesvirus 1; assay: Antiviral activity against thymidine kinase-positive Herpes simplex virus 1 KOS infected in HEL cells assessed as reduction in virus-induced cytopathicity after 3 days; type: functional, organism-based; settings: Human alphaherpesvirus 1, KOS, 72 h
[11] = test system: Human alphaherpesvirus 1; assay: Antiviral activity against thymidine kinase-deficient ACV-resistant Herpes simplex virus 1 B-2006 infected in HEL cells assessed as reduction in virus-induced cytopathicity after 3 days; type: functional, organism-based; settings: Human alphaherpesvirus 1, B-2006, HEL, 72 h
[12] = test system: Human alphaherpesvirus 2; assay: Antiviral activity against Herpes simplex virus 2 G infected in HEL cells assessed as reduction in virus-induced cytopathicity after 3 days; type: functional, organism-based; settings: Human alphaherpesvirus 2, strain G, 72 h

SMILES	Activity [1]	MIC [2]	Activity [3]	Activity [4]	Activity [5]	EC50 [6]	EC50 [7]	MCC [8]	CC50 [9]	EC50 [10]	EC50 [11]	EC50 [12]
CCCCCCCC(=O)NCC#Cc1cn([C@H]2C[C@H](O)[C@@H](COP(=O)(N[C@@H](C)C(=O)OCCC)Oc3ccccc3)O2)c(=O)[nH]c1=O (stereo not given in full)	inactive	125 µg/mL (≈ 185 µM)	–	–	–	–	–	–	–	–	–	–
CCCCCCCC(=O)NCC#Cc1cn([C@H]2C[C@H](O)[C@@H](COP(=O)(N[C@@H](C)C(=O)OCc3ccccc3)Oc3cccc4ccccc34)O2)c(=O)[nH]c1=O (stereo not given in full)	inactive	250 µg/mL (≈ 323 µM)	inactive	inactive	inactive	8.6 µM	> 20 µM	> 100 µM	39 µM	> 100 µM	> 100 µM	> 100 µM
CCCCCCCC(=O)NCC#Cc1cn([C@H]2C[C@H](O)[C@@H](COP(=O)(N[C@@H](C)C(=O)OCc3ccccc3)Oc3ccccc3)O2)c(=O)[nH]c1=O (stereo not given in full)	inactive	125 µg/mL (≈ 172 µM)	inactive	inactive	inactive	2 µM	> 20 µM	> 100 µM	48 µM	2 µM	> 100 µM	4 µM
CCCCCCCC(=O)NCC#Cc1cn([C@H]2C[C@H](O)[C@@H](COP(=O)(N[C@@H](C)C(=O)OCC(C)C)Oc3cccc4ccccc34)O2)c(=O)[nH]c1=O (stereo not given in full)	inactive	62.5 µg/mL (≈ 84.4 µM)	inactive	inactive	inactive	20 µM	> 20 µM	> 100 µM	15 µM	> 100 µM	> 100 µM	> 100 µM
CCCCCCCC(=O)NCC#Cc1cn([C@H]2C[C@H](O)[C@@H](COP(=O)(N[C@@H](C)C(=O)OC)Oc3ccccc3)O2)c(=O)[nH]c1=O (stereo not given in full)	inactive	> 250 µg/mL	–	–	–	–	–	–	–	–	–	–
CCCCCCCC(=O)NCC#Cc1cn([C@H]2C[C@H](O)[C@@H](COP(=O)(NC(C)(C)C(=O)OCc3ccccc3)Oc3ccccc3)O2)c(=O)[nH]c1=O (stereo not given in full)	inactive	> 125 µg/mL	–	–	–	–	–	–	–	–	–	–
CCCCCCCC(=O)NCC#Cc1cn([C@H]2C[C@H](O)[C@@H](COP(=O)(NCC(=O)OCc3ccccc3)Oc3ccccc3)O2)c(=O)[nH]c1=O (stereo not given in full)	inactive	> 250 µg/mL	–	–	–	–	–	–	–	–	–	–
CCCCCCCC(=O)NCC#Cc1cn([C@H]2C[C@H](O)[C@@H](COP(=O)(N[C@H](C)C(=O)OCc3ccccc3)Oc3ccccc3)O2)c(=O)[nH]c1=O (stereo not given in full)	inactive	125 µg/mL (≈ 172 µM)	–	–	–	–	–	–	–	–	–	–
CCCCCCCC(=O)NCC#Cc1cn([C@H]2C[C@H](O)[C@@H](COP(=O)(N[C@H](C(=O)OCc3ccccc3)C(C)C)Oc3ccccc3)O2)c(=O)[nH]c1=O (stereo not given in full)	inactive	31.2 µg/mL (≈ 41.5 µM)	–	–	–	–	–	–	–	–	–	–
CCCCCCCC(=O)NCC#Cc1cn([C@H]2C[C@H](O)[C@@H](CO)O2)c(=O)[nH]c1=O	inactive	> 250 µg/mL	inactive	inactive	inactive	> 100 µM	> 100 µM	–	> 100 µM	> 100 µM	> 100 µM	> 100 µM
Nc1nc2c(ncn2COCCO)c(=O)[nH]1 [ACYCLOVIR]	–	–	–	–	–	2.6 µM	140 µM	> 440 µM	440 µM	–	–	0.1 µM
CCCCCCCC(=O)NCC#Cc1cn([C@H]2C[C@H](O)[C@@H](COP(=O)(N[C@@H](C)C(=O)OCC)Oc3cccc4ccccc34)O2)c(=O)[nH]c1=O (stereo not given in full)	inactive	125 µg/mL (≈ 175 µM)	–	–	–	–	–	–	–	–	–	–
CCCCCCCC(=O)NCC#Cc1cn([C@H]2C[C@H](O)[C@@H](COP(=O)(N[C@@H](C)C(=O)OC)Oc3cccc4ccccc34)O2)c(=O)[nH]c1=O (stereo not given in full)	inactive	62.5 µg/mL (≈ 89.5 µM)	inactive	inactive	inactive	37 µM	46 µM	> 100 µM	64 µM	> 100 µM	> 100 µM	> 100 µM
CCCCCCCC(=O)NCC#Cc1cn([C@H]2C[C@H](O)[C@@H](COP(=O)(N[C@@H](C)C(=O)OCC)Oc3ccccc3)O2)c(=O)[nH]c1=O (stereo not given in full)	inactive	250 µg/mL (≈ 377 µM)	–	–	–	–	–	–	–	–	–	–
